The subject of series [1] is ZVI sensitive OEC-M1 cells. Briefly: Cell survival assay, ZVI@CMC NPs plus ROS scavenger, OEC-M1. The note with it: 48 h, FIG. 4; for cell viability recovered as compared with ZVI@CMC NPs alone: ROS scavenger together with 5 μg/mL ZVI@CMC NPs. The format is cell-based. The method, then: (§1) Cytotoxicity of the ZVI NPs was evaluated by the MTT assay using 3-(4,5-dimethylthiazol-2-yl)-2,5-diphenyltetrazolium bromide. Log-phase OSCC cells were seeded at a density of 5000 cells per well in a 96-well culture plate and incubated for 16 h. The attached cells were then incubated with a series of concentrations of ZVI NPs for 48 h. Subsequently, culture medium of the cells were replaced by fresh complete medium contained 0.5 mg/mL of MTT and the cells were incubated at 37° C. for 1 h. After removing the medium, the resulting MTT crystals were dissolved in DMSO and measured for their optical absorbance at 550 nm to determine viability of the cells.
(§2) Additionally, various cell survival assays were conducted by incubating the cells with 5 μg/mL of ZVI@CMC NPs in combination with an iron chelator (eg. 1 μM of 1, 10-phenanthroline or 1 μM of desferoxamine (DFO)), a ROS scavenger (eg. 100 μM of vitamin C, 100 μM of vitamin E, 100 μM of TEMPOL, 5 μM of mito-lEMPOL, 100 μM Trolox, 100 μM Tiron, or 500 μM NAC), a ferroptosis inhibitor (eg. 5 μM of liproxstatin and 50 μM of ferrostatin) or a ferroptosis inducer (eg. 0.05 μM of RSL-3 or 1 μM of erastin) for 48 h.

In series [2] the test system is ZVI refractory HSC-3, SAS and OEC-M1 R3 cells. Briefly: Cell survival assay, ZVI@CMC NPs plus ferroptosis inducer, refractory cells. Type of series: cell-based. The note with it: ferroptosis inducer in combination with 5 μg/mL ZVI@CMC NPs, 48 h; FIG. 10A. The method, then:
as §1, §2

The subject of series [3] is ZVI refractory cells. Briefly: Depolarized cells, ZVI@CMC NPs plus ferroptosis inducer, refractory cells. The format is cell-based. The conditions noted are these: ferroptosis inducer with ZVI@CMC NPs; FIG. 10A.
Series [4] relates to ZVI refractory SAS cells. In words: SAS tumor xenograft in SCID mice, tumor growth. The note with it: 20 mg/kg RSL-3 together with 25 mg/kg ZVI@CMC NPs, tail vein, every other day x4; FIGS. 10B-10D. Type of series: in vivo. The text has this:
Six to eight week old male mice with severe combined immunodeficiency (SCID) were used as the hosts for OSCC tumor xenografts. 3×10^6 SAS cells were subcutaneously injected into the dorsal flank of the mice to establish tumor lesions. A visible tumor mass was normally observed 1.5 to 2 weeks after the injection. When the tumor size reached approximately 50 mm^3, the mice were randomly assigned to four groups, including a PBS control group, a RSL-3 treatment group, a ZVI@CMC NP treatment group and a ZVI@CMC NP+RSL-3 treatment group (n=4 per group). PBS solution, 20 mg/kg of RSL-3 and 25 mg/kg of ZVI@CMC NPs were individually administered to the mice through tail vein injection once every other day for four times before the final tumor size in every group was measured. The Tumor volumes were measured by a digital caliper and calculated using the formula: […].

Series [5] relates to ZVI sensitive cells OEC-M1 and SCC-9. In words: Cell survival assay, ZVI@CMC NPs plus co-agent, OEC-M1 and SCC-9. The note with it: added to 5 μg/mL ZVI@CMC NPs, 48 h; FIG. 7B. The procedure: as §1, §2
Series [6] concerns ZVI sensitive SCC-9 and OEC-M1 cell lines. In words: Mitochondrial membrane potential (MitoTracker flow cytometry), sensitive lines. The format is cell-based. The conditions noted are these: added to ZVI@CMC NPs; FIG. 7C. The procedure: Depolarization of the ZVI NP treated cells was assessed by double staining with 50 nM of MitoTracker Green, a commercial dye for indicating total mitochondrial mass, and 100 nM of MitoTracker Deep Red, another commercial dye for indicating mitochondria membrane potential (ΔΨ), at 37° C. for 30 min, followed by analysis of red fluorescent signals under an excitation wavelength of 644 nm and an emission wavelength of 665 nm and green fluorescent signals under an excitation wavelength of 490 nm and an emission wavelength of 516 nm by a BD Canto II Flow Cytometer.

Consider `CC(=O)N[C@@H](CS)C(=O)O` [NAC, N-acetylcysteine], for which, in series [1] (cotreatment with 5 μg/mL ZVI@CMC NPs), the “effect of co-agent on cytotoxicity of ZVI@CMC NPs” value is “reduce cytotoxicity”.
Consider `COC(=O)c1ccc([C@H]2c3[nH]c4ccccc4c3C[C@H](C(=O)OC)N2C(=O)CCl)cc1` [RSL-3, methyl (1S,3R)-2-(2-chloroacetyl)-1-(4-methoxycarbonylphenyl)-1,3,4,9-tetrahydropyrido[3,4-b]indole-3-carboxylate], for which the “cell viability as compared with ZVI@CMC NPs alone” value in series [2] is listed as “significantly reduced”. Moreover, the “percentage of depolarized cells” value in series [3] is “dramatically increased”. Besides, the “tumor growth as compared to ZVI@CMC NPs or RSL-3 alone” value in series [4] is on record as “significantly delayed”.
Take `CC1(C)CC(O)CC(C)(C)N1[O]` [TEMPOL, 4-hydroxy-2,2,6,6-tetramethylpiperidin-1-oxyl]: in series [1], the “cell viability recovered as compared with ZVI@CMC NPs alone” value was “about 50%”.
For the compound `O=S(=O)([O-])c1cc(O)c(O)c(S(=O)(=O)[O-])c1.[Na+].[Na+]` [Tiron, disodium 4,5-dihydroxy-1,3-benzenedisulfonate], the “cell viability recovered as compared with ZVI@CMC NPs alone” value in series [1] was “about 50%”.
On the same count and under the same terms, with `Cc1c(C)c2c(c(C)c1O)CCC(C)(C(=O)O)O2` (stereo not shown) [Trolox, 6-Hydroxy-2,5,7,8-tetramethylchroman-2-carboxylic acid] the entry was “about 50%”.
For `CCOc1ccccc1-n1c(C(C)N2CCN(C(=O)COc3ccc(Cl)cc3)CC2)nc2ccccc2c1=O` (stereo not shown) [erastin, 2-[1-[4-[2-(4-chlorophenoxy)acetyl]piperazin-1-yl]ethyl]-3-(2-ethoxyphenyl)quinazolin-4-one], the “cell viability as compared with ZVI@CMC NPs alone” value in series [2] was “significantly reduced”. In series [3], the “percentage of depolarized cells” value is “dramatically increased”.
Consider `CCOC(=O)c1ccc(NC2CCCCC2)c(N)c1` [ferrostatin], for which, in series [5], the “recovery of cell viability of ZVI@CMC NP treated cells” value is approximately 50%. For the same compound, in series [6], the “percentage of depolarized cells caused by ZVI@CMC NP induced mitochondrial hyperoxidation” value is listed as “reduce the percentage of depolarized cells”.
Regarding `Clc1cccc(CN=C2Nc3ccccc3NC23CCNCC3)c1` [liproxstatin], the “recovery of cell viability of ZVI@CMC NP treated cells” value in series [5] was approximately 50%. Moreover, the “percentage of depolarized cells caused by ZVI@CMC NP induced mitochondrial hyperoxidation” value in series [6] is “reduce the percentage of depolarized cells”.

Source of the values: patent US20200397817A1, “METHOD FOR PREDICTING AND MODULATING SUSCEPTIBILITY OF CANCER CELL TO PROGRAMMED CELL DEATH” (SHIEH, Darbin, priority 2017, published 2020).
